From patent US5521155A, “Amides of teicoplanin compounds” (Gruppo Lepetit S.p.A, priority 1985, dated 1996)
≈ marks a conversion by molar mass, not a printed value.

What was measured:
[1] = tested on: S. aureus ATCC 6538; experiment: In vitro antibacterial activity, standard agar-dilution test (MIC); type: cell-based; conditions: inoculum about 10^4 CFU/ml, 18-24 h at 37° C.
Procedure: (§1) The culture medium ISOSENSITEST BROTH (Oxoid) and the colture medium TODD-[…] BROTH (Difco) are used for growing staphylococci and streptococci, respectively. Broth cultures are diluted so that the final inoculum is about 10^4 colony forming units/ml (CFU/ml).

[2] = tested on: S. faecalis ATCC 7080; experiment: as above; type: cell-based; conditions: inoculum about 10^4 CFU/ml, 18-24 h at 37° C.
Procedure: as §1

[3] = tested on: E. coli SKF 12140; experiment: as above; type: cell-based; conditions: inoculum about 10^4 CFU/ml, 18-24 h at 37° C.
Procedure: as §1

[4] = tested on: Pseudomonas aeruginosa ATCC 10145; experiment: as above; type: cell-based; conditions: inoculum about 10^4 CFU/ml, 18-24 h at 37° C.
Procedure: as §1

[5] = tested on: S. aureus Tour; experiment: as above; type: cell-based; conditions: inoculum about 10^4 CFU/ml, 18-24 h at 37° C.
Procedure: as §1

[6] = tested on: Proteus vulgaris X 19H ATCC 881; experiment: as above; type: cell-based; conditions: inoculum about 10^4 CFU/ml, 18-24 h at 37° C.
Procedure: as §1

[7] = tested on: S. pneumoniae UC 41; experiment: as above; type: cell-based; conditions: inoculum about 10^4 CFU/ml, 18-24 h at 37° C.
Procedure: as §1

[8] = tested on: S. pyogenes C 203; experiment: as above; type: cell-based; conditions: inoculum about 10^4 CFU/ml, 18-24 h at 37° C.
Procedure: as §1

[9] = tested on: S. epidermidis ATCC 12228; experiment: as above; type: cell-based; conditions: inoculum about 10^4 CFU/ml, 18-24 h at 37° C.
Procedure: as §1

[10] = Isoelectric point (pI) by isoelectrofocusing with bioautography detection; type: physicochemical; conditions: IEF technique, polyacrylamide gel
Description: The isoelectrofocusing (IEF) technique coupled with bioautography detection has been used for the determination of the pI of representative compounds of the invention using the following materials: AMPHOLINE carrier ampholytes (40% w/v) were purchased from LKB Produketer AB, Bromma, Sweden. Acrylamide, N,N'-methylenbisacrylamide (BIS), N,N,N',N'-tetramethylethylenediamine (TEMED) and ammonium persulfate were from Bio Rad Laboratorie, Richmond, Calif., USA. Glycerol and Antibiotic agar N. 1 (Grove and Randall medium N. 1) were from E. Merck Darmstadt FRG. GEL FIX polyester sheets were purchased from Serva Feinbiochemica Heidelberg. Phenolindo (2,6-dichlorophenol) came from BDH Chemicals Ltd. Poole, England.
IEF was made on gel slab using a LKB MULITPHOR 2117 cell and a Bio-Rad Power Supply Model 1420A. Slabs of 24.5×11.5 cm and 1 mm thickness were prepared on a sheet of GEL FIX. Polyacrylamide gels with a concentration of 8% T and with a cross-linkage of 4% C (30% T stock solution was prepared by dissolving 28.8 g of acrylamide and 1.2 g of bis-acrylamide in 100 ml distilled water), glycerol, 3.5% v/v, 2% AMPHOLINE, 0.05% ammonium persulphate as catalyst and 0.05% TEMED as accelerator. The carrier ampholite composition for 35 ml gelling solution was as follows:
The electrode solutions, as recommended by LKB for the respective pH range, were:
The gel was cooled to 4° C. with the aid of a LKB 2209 refrigerated constant temperature circulator. After prefocusing for 30 min. at 5 W, the samples (20 μl containing 0.2 to 2.5 μg of antibiotic) were loaded into the slot at the cathodic side. Electrofocusing was performed using 10 W constant power and was completed after 3-31/2 hours with a final potential of 1400 V.
The pH values were determined by dividing a portion of the gel into 1 cm sections, and eluting the individual pieces at room temperature with 1 ml of 10 mM KCl prior to pH readings.
The isoelectric point of each antibiotic was determined by interpolation on a curve obtained by plotting pH values versus the distance from the anode.
Polyacrylamide gel was placed on a 3 mm layer of agar medium N. 1 inoculated with 1% of Bacillus subtilis ATCC 6633 spore (0.5 OD at 600 nm). After 10 min the gel was removed and the plate was incubated overnight at 37° C. and examined for inhibition zones. The contrast between the area of lysis and that of bacterial growth was enhanced by use of Phenolindo(2,6-dichlorophenol) 1% w/v (oxidation-reduction indicator).

[11] = tested on: S. pyogenes L 49; experiment: In vivo test in mice experimentally infected with S. pyogenes L 49 (ED50); conditions: mice infected with S. pyogenes L 49; for ED50, route of administration os.: oral
[12] = Acid-base titration (pK); type: physicochemical; conditions: acid-base titration in METHYLCELLOSOLVE/H2O 4:1 (v/v), 0.01N KOH; for pK1 / pK2: salt form per Table IV
Procedure: The following table (Table IV) reports the acid-base titration data of some representative compounds of the invention. The assays were carried out in METHYLCELLOSOLVE/H2 O, 4:1(v/v). A sample is dissolved in METHYLCELLOSOLVE/H2 O, 4:1(v/v) (10 umole in about 20 ml) and then 0.01N HCl (2 ml) is added and the mixture is titrated with 0.01N KOH in the same solvent mixture.

Structure (SMILES) | MIC S. aureus ATCC 6538 [1] [mg/L] | MIC S. faecalis ATCC 7080 [2] [mg/L] | MIC E. coli SKF 12140 [3] [mg/L] | MIC Pseudomonas aeruginosa ATCC 10145 [4] [mg/L] | MIC S. aureus Tour [5] [mg/L] | MIC Proteus vulgaris X 19H ATCC 881 [6] [mg/L] | MIC S. pneumoniae UC 41 [7] [mg/L] | MIC S. pyogenes C 203 [8] [mg/L] | MIC S. epidermidis ATCC 12228 [9] [mg/L] | Isoelectric point (pI) [10] | ED50, route of administration os. [11] [mg/kg] | ED50, route of administration s.c [11] [mg/kg] | pK1 [12] | pK2 [12] | pK3 ([12]; value not in brackets)
CC(=O)NC1C(OC2c3ccc(c(Cl)c3)Oc3cc4cc(c3O)Oc3ccc(cc3Cl)CC3NC(=O)C(N)c5ccc(O)c(c5)Oc5cc(O)cc(c5)C(NC3=O)C(=O)NC4C(=O)NC3C(=O)NC2C(=O)NC(C(=O)NCCCN(C)C)c2cc(O)cc(O)c2-c2cc3ccc2O)OC(CO)C(O)C1O (stereo not drawn) [Compound 13] | 0.12 (≈ 0.0807 µM) | 0.25 (≈ 0.168 µM) | 64 (≈ 43.1 µM) | > 128 | 0.12 (≈ 0.0807 µM) | > 128 | 0.25 (≈ 0.168 µM) | 0.12 (≈ 0.0807 µM) | 0.06 (≈ 0.0404 µM) | 8.9 | > 300 | 2.2 |  |  | 
CC(=O)NC1C(OC2c3ccc(c(Cl)c3)Oc3cc4cc(c3O)Oc3ccc(cc3Cl)CC3NC(=O)C(N)c5ccc(O)c(c5)Oc5cc(O)cc(c5)C(NC3=O)C(=O)NC4C(=O)NC3C(=O)NC2C(=O)NC(C(=O)NCCN2CCOCC2)c2cc(O)cc(O)c2-c2cc3ccc2O)OC(CO)C(O)C1O (stereo not drawn) [Compound 14] |  | 0.5 (≈ 0.33 µM) | > 128 | > 128 | 0.5 (≈ 0.33 µM) | > 128 | 1 (≈ 0.66 µM) | 0.5 (≈ 0.33 µM) | 0.12 (≈ 0.0792 µM) | 8.0 |  |  | 5.3 | 6.8 | 
NC1C(=O)NC2Cc3ccc(c(Cl)c3)Oc3cc4cc(c3O)Oc3ccc(cc3Cl)C(O)C3NC(=O)C(NC(=O)C4NC(=O)C(NC2=O)c2cc(O)cc(c2)Oc2cc1ccc2O)c1ccc(O)c(c1)-c1c(O)cc(O)cc1C(C(=O)NCCN1CCCC1)NC3=O (stereo not drawn) [Compound 22] |  | 0.12 (≈ 0.0927 µM) | 8 (≈ 6.18 µM) | 64 (≈ 49.4 µM) | 0.12 (≈ 0.0927 µM) | 64 (≈ 49.4 µM) | 0.12 (≈ 0.0927 µM) | 0.06 (≈ 0.0463 µM) | 0.016 (≈ 0.0124 µM) | 8.8 | > 300 | 1.6 | 6.4 | 7.8 | 
NC1C(=O)NC2Cc3ccc(c(Cl)c3)Oc3cc4cc(c3O)Oc3ccc(cc3Cl)C(O)C3NC(=O)C(NC(=O)C4NC(=O)C(NC2=O)c2cc(O)cc(c2)Oc2cc1ccc2O)c1ccc(O)c(c1)-c1c(O)cc(O)cc1C(C(=O)NCCCCCC(=O)NC1C(O)OC(CO)C(O)C1O)NC3=O (stereo not drawn) [Compound 31] |  | 0.25 (≈ 0.17 µM) | 64 (≈ 43.4 µM) | > 128 | 0.5 (≈ 0.339 µM) | > 128 | 0.25 (≈ 0.17 µM) | 0.12 (≈ 0.0815 µM) | 0.063 (≈ 0.0428 µM) | 7.9 | > 300 | 2.9 | 6.45 |  | 
COC(=O)C(CCCCN)NC(=O)C1NC(=O)C2NC(=O)C(NC(=O)C3NC(=O)C4NC(=O)C(Cc5ccc(c(Cl)c5)Oc5cc3cc(c5O)Oc3ccc(cc3Cl)C2O)NC(=O)C(N)c2ccc(O)c(c2)Oc2cc(O)cc4c2)c2ccc(O)c(c2)-c2c(O)cc(O)cc21.Cl.Cl (stereo not drawn) [Compound 73] |  | 0.12 | 4 | 32 | 0.06 | 32 | 0.06 | 0.12 | 0.06 |  | > 300 | 0.81 |  | 6.5 | 8.9
Cl.Cl.NC1C(=O)NC2Cc3ccc(c(Cl)c3)Oc3cc4cc(c3O)Oc3ccc(cc3Cl)C(O)C3NC(=O)C(NC(=O)C4NC(=O)C(NC2=O)c2cc(O)cc(c2)Oc2cc1ccc2O)c1ccc(O)c(c1)-c1c(O)cc(O)cc1C(C(=O)NCCCN1CCOCC1)NC3=O (stereo not drawn) [Compound 78] |  | 0.12 | 8 | 32 | 0.06 | 64 | 0.12 | 0.06 | 0.06 | 8.1 | > 300 | 1.4 |  |  | 
Cl.Cl.NC1C(=O)NC2Cc3ccc(c(Cl)c3)Oc3cc4cc(c3O)Oc3ccc(cc3Cl)C(O)C3NC(=O)C(NC(=O)C4NC(=O)C(NC2=O)c2cc(O)cc(c2)Oc2cc1ccc2O)c1ccc(O)c(c1)-c1c(O)cc(O)cc1C(C(=O)NC1CN2CCC1CC2)NC3=O (stereo not drawn) [Compound 83] |  | 0.12 | 8 | 32 | 0.12 | 64 | 0.06 | 0.06 | 0.06 | 8.9 | > 300 | 0.46 |  |  | 
NCCCCC(NC(=O)C1NC(=O)C2NC(=O)C(NC(=O)C3NC(=O)C4NC(=O)C(Cc5ccc(c(Cl)c5)Oc5cc3cc(c5O)Oc3ccc(cc3Cl)C2O)NC(=O)C(N)c2ccc(O)c(c2)Oc2cc(O)cc4c2)c2ccc(O)c(c2)-c2c(O)cc(O)cc21)C(=O)O (stereo not drawn) [Compound 84] |  | 0.12 (≈ 0.0904 µM) | 64 (≈ 48.2 µM) | > 128 | 0.12 (≈ 0.0904 µM) | > 128 | 0.12 (≈ 0.0904 µM) | 0.12 (≈ 0.0904 µM) | 0.06 (≈ 0.0452 µM) | 7.8 | > 300 | 1.65 |  |  | 
CN(C)CCCCCCCNC(=O)C1NC(=O)C2NC(=O)C(NC(=O)C3NC(=O)C4NC(=O)C(Cc5ccc(c(Cl)c5)Oc5cc3cc(c5O)Oc3ccc(cc3Cl)C2O)NC(=O)C(N)c2ccc(O)c(c2)Oc2cc(O)cc4c2)c2ccc(O)c(c2)-c2c(O)cc(O)cc21 (stereo not drawn) [Compound 101] |  | 0.12 (≈ 0.0896 µM) | 16 (≈ 11.9 µM) | 128 (≈ 95.6 µM) | 0.06 (≈ 0.0448 µM) | 128 (≈ 95.6 µM) | 0.12 (≈ 0.0896 µM) | 0.06 (≈ 0.0448 µM) | 0.06 (≈ 0.0448 µM) | 9.1 |  |  |  |  | 
